Assay [1] addresses T1, Tyrosinase (Agaricus bisporus) (UniProt O42713).
T1 sequence (whole entry): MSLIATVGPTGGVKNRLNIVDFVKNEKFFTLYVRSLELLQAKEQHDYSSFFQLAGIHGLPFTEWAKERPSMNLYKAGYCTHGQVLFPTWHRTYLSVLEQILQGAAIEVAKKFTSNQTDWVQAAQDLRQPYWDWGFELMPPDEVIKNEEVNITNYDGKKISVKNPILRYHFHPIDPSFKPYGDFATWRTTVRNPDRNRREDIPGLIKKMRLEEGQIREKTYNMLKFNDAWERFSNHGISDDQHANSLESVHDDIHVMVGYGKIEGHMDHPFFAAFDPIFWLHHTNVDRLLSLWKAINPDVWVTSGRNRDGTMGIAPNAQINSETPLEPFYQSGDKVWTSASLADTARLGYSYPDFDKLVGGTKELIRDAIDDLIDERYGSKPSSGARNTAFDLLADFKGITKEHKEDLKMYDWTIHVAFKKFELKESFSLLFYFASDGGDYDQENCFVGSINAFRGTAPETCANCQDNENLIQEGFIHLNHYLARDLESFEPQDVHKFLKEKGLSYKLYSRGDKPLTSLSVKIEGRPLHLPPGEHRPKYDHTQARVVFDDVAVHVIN
The experiment in a line: Competitive inhibition of mushroom tyrosinase assessed as reduction in L-DOPA oxidation by Lineweaver-Burk plot.

In another assay the target is T2, Tyrosinase (Agaricus bisporus, UniProt O42713).
T2 sequence (O42713 whole entry): T1 sequence (whole entry)

The text below walks through data of ChEMBL document CHEMBL2331134, “Design and synthesis of 3,5-diaryl-4,5-dihydro-1H-pyrazoles as new tyrosinase inhibitors” (Bioorg Med Chem, 2013).

Each structure is given as a SMILES string. Active and inactive are the calls of the source. The rule behind the calls is not given here.

As a reminder, the IC50 is the concentration needed to halve the response being measured. Low readings indicate higher potency, high ones lower potency. With `Oc1ccc(C2CC(c3ccc(O)cc3O)=NN2)cc1` (stereo unspecified), in assay [1], the inhibition result was “Active”. The compound further registered an IC50 against Tyrosinase of 0.882 µM.

In turn, `CC(=O)N1N=C(c2ccccc2O)CC1c1ccc(O)cc1` (stereo unspecified) returned an IC50 on Tyrosinase of 13.1 µM. On the same count and under the same terms, the same measure for `CC(=O)N1N=C(c2ccccc2O)CC1c1ccc(O)c(O)c1` (stereo unspecified): more than 200 µM.

Consider `CC(=O)N1N=C(c2ccc(O)cc2O)CC1c1ccc(O)c(O)c1` (stereo unspecified), for which the inhibition result in assay [1] was “Active”. The compound further gave an IC50 at Tyrosinase of 2.74 µM. The corresponding values for `CC(=O)N1N=C(c2ccc(O)cc2O)CC1c1cccc(O)c1` (stereo unspecified) are “Active” and 0.863 µM. Turning to `CC(=O)N1N=C(c2ccc(O)cc2)CC1c1ccc(O)cc1` (stereo unspecified), on Tyrosinase, half-maximal inhibition (IC50) was put at 3.51 µM. The same measure, in the same setting: the same measure for `COc1cc(O)ccc1C1CC(c2ccccc2O)=NN1C(C)=O` (stereo unspecified): more than 200 µM; for `CC(=O)N1N=C(c2cc(O)cc(O)c2)CC1c1ccc(O)cc1` (stereo unspecified): 161 µM; for `Oc1ccc(C2CC(c3ccccc3O)=NN2)cc1` (stereo unspecified): 11.8 µM. Turning to `CC(=O)N1N=C(c2ccc(O)cc2O)CC1c1ccc(O)cc1` (stereo unspecified), the inhibition entry in assay [1] is “Active”. This compound also registered an IC50 at Tyrosinase of 1.69 µM. As to `O=C(/C=C/c1ccc(O)cc1O)c1ccc(O)cc1O`, the inhibition entry in assay [1] is “Active”. Same read-out and setting: the entry for `O=C(OCc1ccc(O)cc1)c1ccc(O)cc1O` is “Active”. As for `CC(=O)N1N=C(c2ccc(O)cc2)CC1c1ccc(O)c(O)c1` (stereo unspecified), the IC50 against Tyrosinase amounted to 1.07 µM. Still for that read-out and setting: the same measure for `CC(=O)N1N=C(c2cc(O)cc(O)c2)CC1c1cccc(O)c1` (stereo unspecified): more than 200 µM; for `COc1cc(C2CC(c3ccccc3O)=NN2C(C)=O)ccc1O` (stereo unspecified): 13.4 µM. In the case of `O=C1CC(c2ccc(O)cc2O)Oc2cc(O)cc(O)c21` (stereo unspecified), the inhibition entry in assay [1] is “Active”.

Consider `COc1cc(C2CC(c3ccc(O)cc3O)=NN2)ccc1O` (stereo unspecified), for which half-maximal inhibition against Tyrosinase (IC50) required 2.43 µM.

As to `CC(=O)N1N=C(c2ccc(O)cc2)CC1c1cccc(O)c1` (stereo unspecified), the IC50 against Tyrosinase stood at 147 µM. Regarding `Oc1cccc(C2CC(c3ccc(O)cc3O)=NN2)c1` (stereo unspecified), in assay [1], the inhibition result is “Active”. The compound also gave an IC50 against Tyrosinase of 0.837 µM. Turning to `CC(=O)N1N=C(c2ccccc2O)CC1c1cccc(O)c1` (stereo unspecified), the IC50 against Tyrosinase was more than 200 µM. With `COc1cc(C2CC(c3ccc(O)cc3O)=NN2C(C)=O)ccc1O` (stereo unspecified), the inhibition result in assay [1] was “Active”. This compound also returned an IC50 against Tyrosinase of 0.301 µM. At Tyrosinase, `CC(=O)N1N=C(c2ccc(O)cc2O)CC1c1ccc(O)c([N+](=O)[O-])c1` (stereo unspecified) showed an IC50 of more than 200 µM. For `O=c1cc(-c2ccc(O)cc2O)oc2cc(O)cc(O)c12` [NORARTOCARPETIN], the IC50 against Tyrosinase was more than 200 µM. On the same count and under the same terms, the same measure for `COc1cc(C2CC(c3ccc(O)cc3)=NN2C(C)=O)ccc1O` (stereo unspecified): more than 200 µM; for `COc1cc(OC)cc(-c2nc(-c3ccc(O)cc3O)cs2)c1`: 2 µM.
